Results taken from patent US20200022963A1, “PHARMACEUTICAL COMPOSITION COMPRISING BETAHISTINE” (Otolanum AG, priority 2017, published 2020).

Assay: Pharmacokinetic profile after single oral, intranasal and intravenous betahistine in beagle dogs, Example 5
Type: in vivo
Conditions: beagle, dog, in vivo
Protocol: In this study, the pharmacokinetic profile of betahistine was evaluated after a single dose administration of betahistine in male and female beagle dogs (age 5-7 months; weight of 5-11 kg, within a range of 3 kg for each sex) for three routes of administration: oral, intranasal, and intravenous.
On Day 1 of the study, betahistine (BH) was delivered orally at a dose of 12 mg/kg, 24 mg/kg, or 48 mg/kg. Each treatment group comprised 8 animals (4 males and 4 females). For pharmacokinetic assessment, plasma samples were collected prior to dosing, and then at 5, 10, 20 and 30 min, 1, 2, 3, 6, 24 hours after dosing.
On Day 8 of the study, the animals that received oral BH at a dose of 12 mg/kg were administered the test betahistine composition intranasally at a dose of 40 mg betahistine dihydrochloride; the animals that received oral BH at a dose of 24 mg/kg were administered the test betahistine composition intranasally at a dose of 80 mg betahistine dihydrochloride; and the animals that received oral BH at a dose of 48 mg/kg were administered the test betahistine composition intranasally at a dose of 120 mg betahistine dihydrochloride. The test betahistine composition was delivered intranasally in a single dose via an Aptar nasal spray pump device at a total dose level of 40, 80 and 120 mg of betahistine dihydrochloride. Plasma samples were collected prior to dosing, and then at 5, 10, 20 and 30 min, 1, 2, 3, 6, 24 hours after dosing.
On Day 15 of the study, the animals that received oral BH at a dose of 12 mg/kg and the test betahistine composition intranasally at a dose of 40 mg betahistine dihydrochloride were administered a bolus intravenous injection of betahistine at a dose of 0.44 mg/kg. Plasma samples were collected prior to dosing, and then at 5, 10, 20 and 30 min, 1, 2, 3, 6, 24 hours after dosing.
Betahistine 13CD3 dihydrochloride and 2-pyridylacetic acid-D4 hydrochloride were used as respective internal standards. The calibration range for betahistine was 0.05-250 ng/mL and for 2-PAA 2.00-3000 ng/mL using a plasma sample volume of 0.50 mL.
For determination of betahistine, the method involved liquid-liquid extraction, for 2-PAA, the method involved protein precipitation. Plasma samples were prepared for betahistine by extraction under basic conditions with an organic solvent, then the organic phase was dried, reconstituted and transferred for LC/MS-MS analysis. […] Sample analysis was performed using reversed phase chromatography.

[1] = female, po, 24 mg/kg, Betahistine Plasma Concentration
[2] = female, po, 48 mg/kg, Betahistine Plasma Concentration
[3] = male, inhaled or intranasal, 5 mg/kg
[4] = male, inhaled or intranasal, 9.8 mg/kg
[5] = male, inhaled or intranasal, 15.8 mg/kg
[6] = male, iv, 0.44 mg/kg, Betahistine Plasma Concentration

SMILES: CNCCc1ccccn1 [betahistine]
- concentration at 6 h [1]: 0.342 ng/mL
- concentration at 24 h [1]: 0 ng/mL
- AUC(0-6)/D (female, po, 48 mg/kg): 1.61 ± 0.528 hr*ng/mL/(mg/kg)
- AUC(0-inf) (female, po, 48 mg/kg): 69.2 ± 23.3 ng·h/mL
- Cmax (female, po, 48 mg/kg): 33.5 ± 9.11 ng/mL
- Cmax/D (female, po, 48 mg/kg): 0.697 ± 0.190 ng/mL/(mg/kg)
- Oral AUC/dose (female, po, 48 mg/kg): 1.61 (h · ng/mL)/(mg/kg)
- Tmax (female, po, 48 mg/kg): 60 min
- half-life (female, po, 48 mg/kg): 35.9 min
- AUC(0-t) (female, po, 48 mg/kg, AUC(0-6)): 77.5 ± 25.4 ng·h/mL
- AUC(0-t) (female, po, 48 mg/kg, AUC(0-t)): 77.5 ± 25.4 ng·h/mL
- concentration at 0 h [2]: 0 ng/mL
- concentration at 5 min [2]: 9.87 ng/mL
- concentration at 0.167 h [2]: 9.24 ng/mL
- concentration at 0.333 h [2]: 11.5 ng/mL
- concentration at 0.5 h [2]: 19.4 ng/mL
- concentration at 1 h [2]: 32.8 ng/mL
- concentration at 2 h [2]: 21.3 ng/mL
- concentration at 3 h [2]: 10.1 ng/mL
- concentration at 6 h [2]: 0.64 ng/mL
- concentration at 24 h [2]: 0 ng/mL
- AUC(0-inf) [3]: 131 ng·h/mL
- AUC(0-t)/D [3]: 36.4 ± 24.4 hr*ng/mL/(mg/kg)
- Cmax [3]: 598 ng/mL
- Cmax/D [3]: 120 ± 90.1 ng/mL/(mg/kg)
- Intranasal AUC/dose [3]: 36.4 (h · ng/mL)/(mg/kg)
- Tmax [3]: 10.2 min
- AUC(0-t) (male, inhaled or intranasal, 5 mg/kg, AUC(0-6)): 178 ± 122 ng·h/mL
- AUC(0-t) (male, inhaled or intranasal, 5 mg/kg, AUC(0-t)): 182 ± 122 ng·h/mL
- AUC(0-inf) [4]: 202 ± 156 ng·h/mL
- AUC(0-t)/D [4]: 17.5 ± 14.3 hr*ng/mL/(mg/kg)
- Cmax [4]: 735 ng/mL
- Cmax/D [4]: 75.0 ± 56.9 ng/mL/(mg/kg)
- Intranasal AUC/dose [4]: 17.5 (h · ng/mL)/(mg/kg)
- Tmax [4]: 7.8 min
- AUC(0-t) (male, inhaled or intranasal, 9.8 mg/kg, AUC(0-6)): 168 ± 140 ng·h/mL
- AUC(0-t) (male, inhaled or intranasal, 9.8 mg/kg, AUC(0-t)): 172 ± 140 ng·h/mL
- AUC(0-t)/D [5]: 12.6 ± 4.97 hr*ng/mL/(mg/kg)
- Cmax [5]: 765 ng/mL
- Cmax/D [5]: 48.4 ± 23.7 ng/mL/(mg/kg)
- Intranasal AUC/dose [5]: 12.6 (h · ng/mL)/(mg/kg)
- Tmax [5]: 7.8 min
- AUC(0-t) (male, inhaled or intranasal, 15.8 mg/kg, AUC(0-6)): 194 ± 79.8 ng·h/mL
- AUC(0-t) (male, inhaled or intranasal, 15.8 mg/kg, AUC(0-t)): 199 ± 78.5 ng·h/mL
- AUC(0-inf) (male, iv, 0.44 mg/kg): 18.4 ng·h/mL
- AUC(0-t)/D (male, iv, 0.44 mg/kg): 44.3 ± 11.5 hr*ng/mL/(mg/kg)
- Cmax (male, iv, 0.44 mg/kg): 58.2 ng/mL
- Cmax/D (male, iv, 0.44 mg/kg): 132 ng/mL/(mg/kg)
- Tmax (male, iv, 0.44 mg/kg): 4.8 min
- Vd (male, iv, 0.44 mg/kg): 32.1 L/kg
- clearance (male, iv, 0.44 mg/kg): 398 mL/min/kg
- half-life (male, iv, 0.44 mg/kg): 55.8 min
- AUC(0-t) (male, iv, 0.44 mg/kg, AUC(0-6)): 19.5 ng·h/mL
- AUC(0-t) (male, iv, 0.44 mg/kg, AUC(0-t)): 19.5 ng·h/mL
- concentration at 0 h [6]: 0.11 ng/mL
- concentration at 5 min [6]: 58.2 ng/mL
- concentration at 0.167 h [6]: 29.1 ng/mL
- concentration at 0.333 h [6]: 8.06 ng/mL
- concentration at 0.5 h [6]: 5.57 ng/mL
- concentration at 1 h [6]: 0.349 ng/mL
